# Test results taken from patent US5053431A, “Derivatives of chrysophanol as topoisomerase II inhibitors” (Sloan-Kettering Institute For Cancer Research, priority 1990, dated 1991).
# Read-outs that look alike come from different tables or passages of the source.
# How the values were obtained:
# [1] = system: cancer; conditions: literature; cited from earlier work
# [2] = system: mouse leukemia L1210 cells; assay: Inhibition of L1210 cell growth; format: cell-based
# Description: Preliminary biological data for inhibiting cell growth of murine L1210 leukemic cells and human acute promyelocytic leukemia cells (HL-60) during 72 h of exposure to the compounds are given in Table IV. The potencies for inhibiting [^3 H]TdR incorporation into DNA in HL-60 cells during the initial 30-min period are also given in Table IV. It is interesting to note that 1,8-di-O-methyl derivatives are uniformly devoid of activity against L1210 leukemic cells. […] The B/A ratios allow an indirect estimation of whether or not cytotoxicities exerted by these analogues are primarily due to initial inhibition of DNA synthesis. […] Whether these analogues, like m-AMSA, ellipticine, or anthracyclines, act by inhibiting DNA topoisomerase II remains to be explored. […] Our preliminary experiments indicate that the compounds arrest cells in the S and/or G2 phases of the cell cycle (unpublished results).
# [3] = system: human leukemia HL-60 cells; assay: HL-60 cell growth inhibition (72 h); format: cell-based; conditions: HL-60, 72 h, read-out: ID50, M [HL-60 cell growth (72 h)] (A)
# Description: For cell growth inhibition studies, HL-60 cells […]) were grown in RPMI 1640 media at 37° C. in humidified 5% CO2 for 72 h. Viable cells were counted with the trypan blue exclusion method. The fractional inhibitions at four or five concentrations of compounds (in 0.2% DMSO) were analyzed with a median-effect plot (Chou, T.-C., et al., Adv. Enzyme Regul. 22:27 (1984)) by using a computer program. (Chou, J.; Chou, T.-C. Dose-Effect Analyses with Microcomputer. Quantitation of ID50, LD50, Synergism, Antagonism, Low-dose Risk, Receptor-Binding and Enzyme Kinetics; IBM-PC Series, Elsevier-Biosoft, Elsevier Scientific: Cambridge, U.K., (1986)). The median-effect concentration (ID50) was automatically determined for the x intercept of the median-effect plot. Cell growth in the absence of a compound and in the presence of DMSO was used as a control. DMSO (0.2%) alone inhibited cell growth 3.8±1.2% during the 72-h incubation period.
# [4] = system: [^3 H]TdR incorporation into DNA in HL-60 cells; assay: Inhibition of [3H]TdR incorporation into DNA in HL-60 cells (initial 30 min); format: cell-based, human; conditions: for IC50: HL-60, initial 30 min exposure, read-out: ID50, M (HL-60 TdR into DNA (B)); for B/A: ratio of ID50 for TdR incorporation (B) to ID50 for cell growth (A), HL-60
# Description: For precursor incorporation studies, each compound at four to six concentrations (0.2% DMSO) was preincubated with HL-60 cells (2.5×10^6 /Ml) for 15 min prior to the addition of [^3 H-methyl]TdR (1 μCi, 0.15 nmol/mL) and was incubated for 30 min. […] The incorporation of radioactivity in DNA in the absence of an analogue in the presence of DMSO was used as a control.
# [5] = system: DNA (native and thermally denatured); assay: Spectrophotometric study of DNA interaction; format: binding, calf thymus; conditions: for reversal of DNA induced changes in absorption spectra by Me2SO: Me2 SO to 1:1 v/v; for interaction with DNA on increase of salt concentration: Na concentration increased from 0.01 to 0.1 M
# Description: Some representative compounds were studied for their ability to interact with nucleic acids in solution by comparison of the electronic spectrum of drug alone with that of the drug in the presence of an excess of nucleic acid. All drugs studied have an absorption band in the visible region, separate from the absorption band of the nucleic acids, and therefore any changes in band intensity and position were indicative of drug chromophore-DNA interaction.
# Absorption spectra were measured with an IBM 9410 UV-visible spectrometer interfaced to an HP 9826 computer. Small volumes of the stock drug solutions (2 mg/mL in Me2 SO) were added to 2 mL of buffer (0.01 or 0.1 M NaCl, 5 mM Hepes, pH 7) to obtain a final drug concentration of 5-15 μM, or to the solution of native or thermally denatured DNA (0.2 and 0.1 mM, respectively) in the buffer. After incubation at room temperature for 10 min, the spectra were recorded in the 300-600 nm range (increment 1 nm) and corrected by subtracting the spectrum of the blank which was measured before addition of the drug.
# [6] = Stability of compound; format: physicochemical
# [7] = Solubility in aqueous solutions; format: physicochemical
# [8] = system: DNA; conditions: literature; cited from earlier work
# [9] = system: leukemic cells; assay: Antileukemic activity (Experiment 3); format: cell-based; conditions: read-out: antileukemic activity IC>es
# [10] = system: Topo II; assay: Inhibition of kDNA decatenation; format: biochemical
# [11] = system: Topo II; assay: Mapping of DNA-Topo II cleavage sites (Hind III-digested 3'-labeled DNA, HL-60 nuclear extracts); format: biochemical, human (HL-60); conditions: 10 uM
# Description: (§1) This experiment concerns Topoisomerase II (Topo II)-mediated DNA cleavage activity induced by chrysophanol derivatives. 3-(bis[2-chloroethyl]amino)methyl-1,8-dihydroxy-9,10-anthraquinone (SK-31662) and 3-(2-hydroxyethylamino)methyl-1,8-dihydroxy-9,10-anthraquinone (SK-31694) have antileukemic activity with IC>es of 0.14 and 0.86 uM, respectively. SK-31662 and SK-31694 inhibit kDNA decatenation at 48 and 38 uM, respectively.
# [12] = system: Topo II; assay: Topo II cleavable complex formation; format: biochemical, human (HL-60); conditions: 3'-labeled DNA and NE of HL-60
# Description: as §1
# [13] = system: Topo II; assay: Heat reversal of protein-linked DNA complex; format: biochemical, human (HL-60); conditions: 65 degrees C
# Description: as §1
# [14] = system: DNA topoisomerase II; conditions: literature; cited from earlier work
# [15] = system: leukemia L1210/Cisplatin; assay: Activity against Cisplatin-resistant leukemia L1210 in mice; format: in vivo, mouse
# Description: At the dosage of 100 mg/kg/day×5 (ip), mice inoculated with Cisplatin resistant leukemia L1210/Cisplatin are cured.
# [16] = system: peroxidases; conditions: literature; cited from earlier work
# [17] = system: proteins, polyadenylate, RNA, DNA; conditions: literature; cited from earlier work
# [18] = Table I, read-out: ID50 (the source's name)
# [19] = Mus musculus, L1210, 72 h, read-out: ID50, M (L1210 cell growth)
compound,measurement,setting,value
Cc1c2ccncc2c(C)c2c1[nH]c1ccc(O)cc12 [9-hydroxyellipticine],anticancer activity,[1],potent anticancer agent
"O=C1c2cccc(O)c2C(=O)c2c(O)cc(CNCCCl)cc21 [XIa-7, 3-[N-(2-chloroethyl)amino]methyl-1,8-dihydroxy-9,10-anthraquinone]",IC50,"[2]; Mus musculus, L1210, read-out: ID50 (μM)",7.11 µM
same,IC50,"[2]; Mus musculus, L1210, read-out: ID50 (μg/mL)",2.37 µg/mL
same,IC50,[3]; Homo sapiens,7.5 µM
same,IC50,"[4]; Homo sapiens, 0.5 h",39 µM
same,B/A,[4],5.2
same,reversal of DNA induced changes in absorption spectra by Me2SO,[5],could be reversed by addition of Me2 SO
same,stability,[6],unstable
"Cc1cc(O)c2c(c1)C(=O)c1cc(O)cc(O)c1C2=O [IIb, emodin]",solubility in aqueous solutions,[7],low solubility in aqueous solutions
COc1c(O)c2c(c3cc(C(=O)N4CCc5c4c(O)c(OC)c4[nH]c(C(=O)N6CC7CC78C6=CC(=O)c6[nH]cc(C)c68)cc54)[nH]c13)CCN2C(N)=O (stereo not drawn) [CC1065],DNA binding / alkylation,[8],binds to the minor groove of DNA by nonintercalative means and then slowly alkylates the amino group of adenine
"O=C1c2cccc(O)c2C(=O)c2c(O)cc(CNCCO)cc21 [XIa-6, 3-(2-hydroxyethylamino)methyl-1,8-dihydroxy-9,10-anthraquinone]",IC50,"[2]; Mus musculus, L1210, Table I, read-out: ID50 (the source's name)",0.16 µM
same,IC50,"[2]; Mus musculus, L1210, Table I, read-out: ID50 (μg/mL)",0.066 µg/mL
same,IC50,"[3]; Homo sapiens, 0.2% DMSO",0.86 µM
same,IC50,"[4]; Homo sapiens, 0.5 h",15 µM
same,B/A,[4],17.4
same,IC50,[9],0.86 µM
same,concentration that inhibits kDNA decatenation,[10],38 µM
same,"protein-linked DNA breaks, cleavage site pattern",[11],induce protein-linked DNA breaks with a cleavage site pattern similar to m-AMSA
same,formation of Topo II cleavable complex,[12],stimulate the formation of Topo II cleavable complex
same,reversal of protein-linked DNA by heat,[13],reduced during 0.5 min exposure to 65 °C
"Cc1cc(O)c2c(c1)C(=O)c1cccc(O)c1C2=O [IIa, chrysophanol]",solubility in aqueous solutions,[7],low solubility in aqueous solutions
"COc1cc(NS(C)(=O)=O)ccc1Nc1c2ccccc2nc2ccccc12 [m-AMSA, 4'-(9-acridinylamino) methanesulfon-m-aniside]",effect on DNA topoisomerase II reactions,[14],inhibits the topoisomerization and catenation reactions of DNA topoisomerase II
Cc1c2ccncc2c(C)c2c1[nH]c1ccccc12 [ellipticine],stabilization of cleavable complex between DNA topoisomerase II and DNA,[14],stabilize the cleavable complex between DNA topoisomerase II and DNA
"3-[(Diethylamino)methyl]-(or 8)-hydroxy-8(or 1)-methoxy-9,10-anthraquinone [Xa-1]",IC50,"[2]; Table II, antileukemic activity, read-out: L1210: ID50",11.9 µM
same,IC50,[3]; 0.2% DMSO,5.2 µM
same,IC50,[4],14 µM
same,B/A,[4],2.7
same,interaction with DNA,"[5]; absorption spectra, native and thermally denatured DNA",interact with both native and thermally denatured DNA but more strongly with native DNA
"O=C1c2cccc(O)c2C(=O)c2c(O)cc(CN(CCCl)CCCl)cc21 [XIa-3, 3-(bis[2-chloroethyl]amino)methyl-1,8-dihydroxy-9,10-anthraquinone]",ID50,[2]; Table I,0.058 µg/mL
same,IC50,[2]; [18],0.13 µM
same,IC50,[3]; 0.2% DMSO,0.18 µM
same,IC50,[4],69 µM
same,B/A,[4],383
same,cure of mice inoculated with Cisplatin resistant leukemia L1210/Cisplatin,[15]; 100 mg/kg/day×5 (ip),cured
same,potency against mouse leukemia L1210 made resistant to Cisplatin,"[15]; mouse, in vivo",extremely potent
same,IC50,[9],0.14 µM
same,concentration that inhibits kDNA decatenation,[10],48 µM
same,"protein-linked DNA breaks, cleavage site pattern",[11],induce protein-linked DNA breaks with a cleavage site pattern similar to m-AMSA
same,formation of Topo II cleavable complex,[12],stimulate the formation of Topo II cleavable complex
same,reversal of protein-linked DNA by heat,[13],cannot be reversed up to 15 min
"COc1cc(O)c2c(c1)C(=O)c1cc(CN(CCCl)CCCl)cc(O)c1C2=O [XIb-3, 3-[N,N-bis(2-chloroethyl)amino]methyl-1,8-dihydroxy-6-methoxy-9,10-anthraquinone]",ID50,[2]; Table I,0.010 µg/mL
same,IC50,[2]; [18],0.023 µM
same,IC50,[3]; 0.2% DMSO,0.61 µM
same,IC50,[4],12 µM
same,B/A,[4],19.7
same,interaction with DNA on increase of salt concentration,[5],lost the ability to interact with DNA
"COc1cc([C@@H]2c3cc4c(cc3[C@@H](O[C@@H]3O[C@@H]5CO[C@@H](C)O[C@H]5[C@H](O)[C@H]3O)[C@H]3COC(=O)[C@H]23)OCO4)cc(OC)c1O [VP-16, etoposide, reference compound]",reversal of protein-linked DNA by heat,[13],reduced during 0.5 min exposure to 65 °C
same,stabilization of cleavable complex between DNA topoisomerase II and DNA,[14],stabilize the cleavable complex between DNA topoisomerase II and DNA
"COc1cccc2c1C(=O)c1c(OC)cc(CNCCCl)cc1C2=O [IXa-7, 3-[N-(2-chloroethyl)amino]methyl-1,8-dimethoxy-9,10-anthraquinone]",IC50,[2]; [19],26 µM
same,IC50,[3]; Homo sapiens,86 µM
same,IC50,"[4]; Homo sapiens, 0.5 h",19 µM
same,B/A,[4],0.22
same,stability,[6],unstable
"Cc1c2cc[n+](C)cc2c(C)c2c1[nH]c1ccc(O)cc12 [9-OH-NME, 2-N-Methyl-9-hydroxyellipticinium]",anticancer activity,[1],one of the most active drugs among the ellipticine analogues
same,oxidation by peroxidases,[16],easily oxidized by peroxidases
"Cc1c2c(c(C)c3c[n+](C)ccc13)C1=CC(=O)C=CC1=N2 [9-oxo-NME, 9-oxo-2-methylellipticinium]",alkylation of macromolecules,[17],easily alkylated by 9-oxo-NME
"COc1cc(O)c2c(c1)C(=O)c1cc(CNCCCl)cc(O)c1C2=O [XIb-7, 3-[N-(2-chloroethyl)amino]methyl-1,8-dihydroxy-6-methoxy-9,10-anthraquinone]",IC50,[2]; [19],18 µM
same,IC50,[3]; Homo sapiens,9.2 µM
same,IC50,"[4]; Homo sapiens, 0.5 h",220 µM
same,B/A,[4],23.9
same,reversal of DNA induced changes in absorption spectra by Me2SO,[5],could be reversed by addition of Me2 SO
same,interaction with DNA on increase of salt concentration,[5],lost the ability to interact with DNA
COc1cccc2c1C(=O)c1c(O)c3c(c(O)c1C2=O)C[C@@](O)(C(=O)CO)C[C@@H]3O[C@H]1C[C@H](N)[C@H](O)[C@H](C)O1 [adriamycin],stabilization of cleavable complex between DNA topoisomerase II and DNA,[14],stabilize the cleavable complex between DNA topoisomerase II and DNA
